# Source: ChEMBL document CHEMBL2034957, “Synthesis and antitumor evaluation of novel benzo[d]pyrrolo[2,1-b]thiazole derivatives” (Eur J Med Chem, 2012)
# Activity calls are given as the source filed them. No cut-off for these calls is given here.
# Experiments:
# HCT-116 = experiment: Cytotoxicity against human HCT116 cells after 72 hrs by SRB assay; type: functional, cell-based; conditions: HCT-116, 72 h
# [1] = Cell cycle arrest in human H1299 cells assessed as G2/M phase cells at 4.5 to 9 uM after 24 hrs by propidium iodidee-based flow cytometry; type: functional; conditions: NCI-H1299
# [2] = Cytotoxicity against human H1299 cells after 72 hrs by alamar blue assay; type: functional, cell-based; conditions: NCI-H1299, 72 h
# PC-3 = experiment: Cytotoxicity against human PC3 cells after 72 hrs by alamar blue assay; type: functional, cell-based; conditions: PC-3, 72 h
# CCRF-CEM [3] = experiment: Ratio of IC50 for human vinblastine-resistant CCRF-CEM cells to IC50 for human CCRF-CEM cells; type: functional
# [4] = Cell cycle arrest in human H1299 cells assessed as increase in sub-G1 phase cells at 4.5 to 9 uM after 24 hrs by propidium iodidee-based flow cytometry; type: functional; conditions: NCI-H1299
# CCRF-CEM [5] = experiment: Cytotoxicity against human taxol-resistant CCRF-CEM cells after 72 hrs by XTT assay; type: functional, cell-based
# [6] = Cell cycle arrest in human H1299 cells at 18 uM after 24 hrs by propidium iodidee-based flow cytometry; type: functional; conditions: NCI-H1299
# Mus musculus = experiment: Toxicity in athymic nude mouse assessed as weight loss at 20 mg/kg, iv administered q2d for 3 days followed by 25 mg/kg, iv q2d for 5 days; type: organism-based; conditions: in vivo
# MX1 [7] = experiment: Cytotoxicity against human MX1 cells after 72 hrs by SRB assay; type: functional, cell-based; conditions: MX1, 72 h
# [8] = Cytotoxicity against human U87 cells after 72 hrs by alamar blue assay; type: functional, cell-based, U-87MG ATCC; conditions: U-87 MG
# [9] = Toxicity in iv dosed athymic nude mouse assessed as mortality; type: organism-based; conditions: in vivo
# MX1 [10] = experiment: Antitumor activity against human MX1 cells xenografted in athymic nude mouse assessed as tumor remission at 20 mg/kg, iv administered q2d for 3 days followed by 25 mg/kg, iv q2d for 4 days measured on day 26 post-tumor implantation; type: functional, organism-based
# [11] = Cytotoxicity against human OECM1 cells after 72 hrs by alamar blue assay; type: functional, cell-based; conditions: OECM1, 72 h
# Nucleic Acid = experiment: Induction of Escherichia coli pEGFP-N1 DNA interstrand cross-linking at 1 to 20 uM after 2 hrs using ethidium bromide staining by alkaline agarose gel shift assay; type: nucleic-acid assay
# [12] = Cell cycle arrest in human H1299 cells at 18 uM after 48 hrs by propidium iodidee-based flow cytometry; type: functional; conditions: NCI-H1299
# CCRF-CEM [13] = experiment: Cytotoxicity against human vinblastine-resistant CCRF-CEM cells after 72 hrs by XTT assay; type: functional, cell-based
# CCRF-CEM [14] = experiment: Ratio of IC50 for human taxol-resistant CCRF-CEM cells to IC50 for human CCRF-CEM cells; type: functional
# CCRF-CEM [15] = experiment: Cytotoxicity against human CCRF-CEM cells after 72 hrs by XTT assay; type: functional, cell-based
# MX1 [16] = experiment: Antitumor activity against human MX1 cells xenografted in athymic nude mouse assessed as tumor remission at 20 mg/kg, iv administered q2d for 3 days followed by 25 mg/kg, iv q2d for 4 days measured on day 28 post-tumor implantation; type: functional, organism-based
# MX1 [17] = experiment: Antitumor activity against human MX1 cells xenografted in athymic nude mouse assessed as tumor remission at 20 mg/kg, iv administered q2d for 3 days followed by 25 mg/kg, iv q2d for 5 days measured on day 26 post-tumor implantation; type: functional, organism-based
# [18] = Cell cycle arrest in human H1299 cells assessed as reduction in G2/M phase cells at 4.5 to 9 uM after 48 hrs by propidium iodidee-based flow cytometry; type: functional; conditions: NCI-H1299
structure (smiles),measurement,setting,value
CC(C)NC(=O)OCc1c(COC(=O)NC(C)C)c2sc3ccccc3n2c1-c1ccc(Cl)cc1,IC50,HCT-116,1.7 µM
same,Activity,[1],Active
same,IC50,[2],8.75 µM
same,IC50,PC-3,13.7 µM
same,Ratio IC50,CCRF-CEM [3],5.25
same,Activity,[4],Active
same,IC50,CCRF-CEM [5],0.39 µM
same,Activity,[6],Active
same,Activity,Mus musculus,10%
same,IC50,MX1 [7],1.19 µM
same,IC50,[8],29 µM
same,MTD,[9],20 mg/kg
same,Activity,MX1 [10],Active
same,IC50,[11],7.54 µM
same,Activity,Nucleic Acid,Active
same,Activity,[12],inactive
same,IC50,CCRF-CEM [13],0.42 µM
same,Ratio IC50,CCRF-CEM [14],4.87
same,IC50,CCRF-CEM [15],0.08 µM
same,Activity,MX1 [16],Active
same,Activity,MX1 [17],Active
same,Activity,[18],Active
